According to patent US20130149721A1, “Methods for Inhibiting Amyloid Precursor Protein and Beta-Amyloid Production and Accumulation” (WISCONSIN ALUMNI RESEARCH FOUNDATION, priority 2008, published 2013):

Assays:
[1] = tested on: dendritic APP in primary neuronal cells; experiment: Immunofluorescence confocal quantitation of dendritic APP in primary cortical neurons; assay type: cell-based, mouse
Description: Pregnant female mice at embryonic day 18 (E18) were anesthetized with halothane prior to decapitation and transfer of the uterine sac to ice-cold HBSS. […] Cells were counted by trypan blue dye exclusion and plated at 1.25×10^5 cells/ml on poly(D)-lysine-coated glass coverslips in 12-well tissue-culture dishes and cultured for 11 d at 37° C./5% CO2. Half of the culture medium was removed and replaced with fresh, warm medium on day 4. […] All washes and antibody dilutions were in PBS containing 2% FBS. […] Images were acquired with a Nikon C1 laser-scanning confocal microscope with EZ-C1 v2.20 software (Nikon, http://www.nikon.com) at 60× magnification. APP levels in the puncta of four to seven dendrites per sample were quantitated with IMAGE J software using the Analyze Particles function (minimum of 205 puncta analyzed per treatment) (Rasband, Image J, U.S. National Institutes of Health, http://rsb.info.nih.gov/ij; 1997-2006). Figures were assembled with Adobe Photoshop 8.0 (Adobe Systems, http://www.adobe.com). […] It was recognized that SN are a relatively crude preparation of pre- and post-synaptic dendrites that are contaminated with other cell types, such as astrocytes, which form synapses with neurons. Thus, primary E18 cortical neuron cultures were prepared from WT and Fmr-1 KO brains and dendritic APP levels assessed using an immunofluorescence assay. There was a 21% increase in the basal level of APP in untreated dendrites from Fmr-1 KO neurons compared to WT (FIG. 5B). […] Staining of dendritic puncta was analyzed by confocal microscopy and quantitated with Image J software using the Analyze Particles function (a minimum of 475 particles were analyzed per treatment) (Rasband, W. S., Image J, U.S. National Institutes of Health, http://rsb.info.nih.gov/ij; 1997-2006). Duplicate slides were stained for each treatment and the number and intensity of dendritic puncta from three areas of each slide were analyzed and averaged. All MPEP-treated samples were statistically different from untreated controls by t-test analyses (p<0.005) and expressed as standard error of the mean (SEM).

APP translation in SN = experiment: 35S-Met labeling and immunoprecipitation of newly synthesized APP in synaptoneurosomes; assay type: cell-based, mouse; settings: WT SN
Description: WT and KO SNs (450 μl) were mixed with 25 μl Redivue Pro-Mix-L [^35S] for 5 min prior to stimulation with 25 μl 2 mM DHPG. Samples were flash frozen at the indicated times. To analyze new protein synthesis, SN lysates were cleared of free isotope, Percoll®, and sucrose by purification with the PAGEprep Advance kit according to the manufacturer's directions. Protein concentrations were determined by the BCA assay, and 15 μg protein was denatured and loaded per lane on 12% SDS gels for content analysis. Gels were dried and exposed to a phosphorimager screen to identify the results of these assays.
To specifically analyze APP synthesis, WT and KO SN lysates (500 μl) were immunoprecipitated with APP antibody. Briefly, SN lysates were precleared with protein A magnetic beads in 1 ml volumes containing 500 μl SNs, 500 μl 2×IP buffer (20 mM HEPES (pH 7.4), 400 mM NaCl, 60 mM EDTA (pH 8), and 2% Triton X-100), protease inhibitor cocktail, and 100 μl packed fresh protein A magnetic beads. For the immunoprecipitations, 10 μg anti-APP antibody (Zymed catalog number 51-2700) and fresh protein A magnetic beads were added and mixed overnight at 4° C. The beads were washed three times with IP buffer, and the final, washed pellets were suspended in 40 μl 2×SDS sample buffer and boiled for 5 min; the proteins were then separated on 12% SDS gels. The gels were transferred to a nitrocelluose membrane, dried, exposed to a phosphorimager screen, and scanned on a STORM 860 phosphorimager (Molecular Dynamics http://www6.amershambiosciences.com). APP bands at 120 kDa were quantitated with ImageQuant software (GE Healthcare Life Sciences, http://www4.amershambiosciences.com).
For mGluR5 inhibitor studies, SNs (425 μl) were preincubated with 25 μl anisomycin (40 μM final concentration) or MPEP (10 μM final concentration) for 10 min prior to the addition of 25 μl ^35S-Met for 5 min and stimulation with DHPG (100 μM final concentration) for 15 min. Samples were processed as described in the preceding paragraph.
To further assess FMRP regulation of APP levels in brain, cortical SN were prepared from WT mice and overall protein synthesis analyzed in response to DHPG (100 μM)-induced mGluR5 activation. SN were metabolically active as assessed by ^35S-Met incorporation. […]
These conclusions were tested by assessing the effects on APP translation of contacting SN with a group 1 mGluR5 antagonist, 2-methyl-6-(phenylethynyl)-pyridine (MPEP). […] To assess the effect of MPEP, a specific mGluR5 antagonist, on DHPG stimulation of de novo APP synthesis, SN were pre-treated with 10 μM MPEP for 10 min prior to the addition of ^35S-Met for 5 min and stimulation with 100 μM DHPG for 15 min. ^35S-Met-labeled APP was immunoprecipitated with anti-APP antibodies and analyzed by SDS-PAGE. […]

mGluR5 = mGluR5 (Homo sapiens, UniProt P41594); settings: shared allosteric modulatory site; cited from earlier work
Sequence of mGluR5 (P41594 21-1212): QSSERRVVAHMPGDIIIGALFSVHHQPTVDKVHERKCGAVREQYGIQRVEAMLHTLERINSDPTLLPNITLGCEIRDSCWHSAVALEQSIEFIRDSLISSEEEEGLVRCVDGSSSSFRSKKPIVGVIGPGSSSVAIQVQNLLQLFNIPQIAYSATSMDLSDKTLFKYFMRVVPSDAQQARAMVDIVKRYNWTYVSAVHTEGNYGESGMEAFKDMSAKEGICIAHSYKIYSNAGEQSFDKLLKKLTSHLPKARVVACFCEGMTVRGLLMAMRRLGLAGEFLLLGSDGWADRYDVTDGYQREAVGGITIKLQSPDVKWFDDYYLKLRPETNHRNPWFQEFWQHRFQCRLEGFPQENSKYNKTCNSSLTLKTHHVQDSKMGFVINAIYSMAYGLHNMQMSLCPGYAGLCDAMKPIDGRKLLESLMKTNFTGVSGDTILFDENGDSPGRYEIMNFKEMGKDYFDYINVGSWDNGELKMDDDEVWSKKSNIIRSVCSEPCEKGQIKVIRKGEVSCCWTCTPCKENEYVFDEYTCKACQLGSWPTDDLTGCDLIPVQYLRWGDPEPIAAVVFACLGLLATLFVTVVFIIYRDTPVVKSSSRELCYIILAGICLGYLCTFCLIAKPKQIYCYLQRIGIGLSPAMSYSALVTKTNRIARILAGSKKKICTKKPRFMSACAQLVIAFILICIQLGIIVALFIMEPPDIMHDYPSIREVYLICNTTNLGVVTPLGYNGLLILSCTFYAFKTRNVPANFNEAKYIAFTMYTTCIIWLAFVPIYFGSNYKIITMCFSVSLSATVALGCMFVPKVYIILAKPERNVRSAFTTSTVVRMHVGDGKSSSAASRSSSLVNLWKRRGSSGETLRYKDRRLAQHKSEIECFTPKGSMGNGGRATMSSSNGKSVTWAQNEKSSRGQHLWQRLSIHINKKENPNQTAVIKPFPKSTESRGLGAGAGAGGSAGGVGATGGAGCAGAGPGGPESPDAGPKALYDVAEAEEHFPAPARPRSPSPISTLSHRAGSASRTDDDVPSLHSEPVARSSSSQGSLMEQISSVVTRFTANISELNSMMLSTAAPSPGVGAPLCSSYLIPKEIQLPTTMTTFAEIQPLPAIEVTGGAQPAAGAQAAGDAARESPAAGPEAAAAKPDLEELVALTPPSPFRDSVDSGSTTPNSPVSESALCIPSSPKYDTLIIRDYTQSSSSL

[2] = tested on: anxiety phenotype in Fmr-1 KO mice; settings: intraperitoneal injections; cited from earlier work
[3] = WT primary neuronal cells, 10 μM MPEP

Compound | increase in dendritic APP levels ([1]; Fmr-1 KO cultures, DHPG 10 and 20 min) | increase in dendritic APP levels ([1]; WT neurons, 100 μM DHPG, 10 and 20 min) | increase in APP translation (APP translation in SN; 100 μM DHPG, 15 min) | increase in APP translation over control (APP translation in SN; 100 μM DHPG, 1 hr) | mGluR5 antagonist character (mGluR5) | decrease in dendritic APP (average particle intensity) ([1]; WT C57BL/6 primary neuronal cells, 10 μM MPEP, 15 min) | decrease in area of each particle [1, 3] | increase in number of particles in a defined area [1, 3] | decrease in dendritic APP at later times ([1]; WT primary neuronal cells, 10 μM MPEP, 4 hr and 1 day) | effect on anxiety phenotype [2] | effect on DHPG-mediated synthesis of APP (APP translation in SN; 10 μM MPEP pre-treatment 10 min, 100 μM DHPG 15 min)
N[C@@H](C(=O)O)c1cc(O)cc(O)c1 (racemic) [DHPG, (R,S)-3,5-dihydroxyphenylglycine] | no increase | 18-25% | 2.7 fold | 1.6 fold |  |  |  |  |  |  | 
Cc1cccc(C#Cc2ccccc2)n1 [MPEP, 2-methyl-6-(phenylethynyl)pyridine] |  |  |  |  | potent and highly selective noncompetitive antagonists | 37% | 22% | 29% | persisted | reduce | blocked
